Experimental data reported in PMC6804079, “Investigation of 5’-Norcarbocyclic Nucleoside Analogues as Antiprotozoal and Antibacterial Agents” (Molecules, 2019).
Converted amounts (≈) assume the structure as drawn. “And” between values parts separate entries of the source, which are not always exact repeats. Equal values may be shown once.

What was measured:
Tbb-5FURes = test: microbe, parasite or virus in culture; type: cell-based, Trypanosoma brucei brucei; settings: for EC50: Trypanosoma brucei, read-out: T. Brucei, EC50, Tbb-5FURes
T. brucei B48 = test: microbe, parasite or virus in culture; type: cell-based, Trypanosoma brucei brucei; settings: Trypanosoma brucei, read-out: T. Brucei, EC50, B48
T. brucei 2T1 PYR6-5 −/− = test: microbe, parasite or virus in culture; type: cell-based, Trypanosoma brucei brucei; settings: for EC50: Trypanosoma brucei, read-out: T. Brucei, EC50, 2T1 PYR6-5 −/−
[1] = test system: L. mexicana 5FURes (Lmex5FURes); test: microbe, parasite or virus in culture; settings: Leishmania mexicana, read-out: L. Mexicana 5FUR, EC50
Method: (§1) Promastigotes of Leishmania mexicana strain MNY/BZ/62/M379 was cultured in a minimal essential medium, HO-MEMO-MEME, supplemented with 10% FBS and 1% of a penicillin/streptomycin solution (Gibco) as described previously [39] at 25 °C. The L. mexicana 5FURes strain was the same strain but adapted in vitro to high levels of 5FU exactly as described for T. brucei [12].
(§2) The resazurin assay for L. mexicana promastigotes was performed exactly as for T. b. brucei, except that incubation times of 72 and 48 h were used before and after the addition of resazurin, respectively, due to the slower metabolism of the dye by Leishmania promastigotes [42].

[2] = test system: L. mexicana 5FURes (Lmex5FURes); settings: differences in EC50 between wild-type and 5FU-resistant L. mexicana
Method: as §1, §2

[3] = test system: T. b. brucei strain Lister 427 (s427-WT); test: resazurin EC50 assay, T. b. brucei wild-type bloodstream forms; type: cell-based, Trypanosoma brucei brucei; settings: 48 h + 24 h resazurin, average and SEM, at least three determinations, NE = no effect on cell viability at 100 µM; for EC50: Trypanosoma brucei, 72 h
[4] = test system: M. tuberculosis ATCC 25,177 (H37Ra); test: microbe, parasite or virus in culture; type: cell-based, Mycobacterium tuberculosis; settings: Mycobacterium tuberculosis, read-out: M. Tuberculosis 25,177 MIC
U-937 cells = test: U-937 cytotoxicity (XTT); type: cell-based; settings: 6 days incubation
Method: The U-937 cells used in the cytotoxicity evaluation were obtained from the AIDS Research and Reference Program. The cells were cultured as indicated by the supplier in RPMI-1640 supplemented with 10% heat inactivated FBS, 1% penicillin/streptomycin solution, and 1% L-glutamine.
U-937 cells plated at 2.5 × 10^3 cells/well in a volume of 100 µL were incubated with serially diluted test compounds in a volume of 100 µL for 6 days at 37 °C/5% CO2. Following the incubation, the cells were stained by adding 50 μL tetrazolium dye XTT (Sigma) solution at 5 mg/mL to determine cellular viability and read at 460/650 nm on a spectrophotometer. Toxicity values were calculated using linear regression analysis.

T. vaginalis strain G3 = test: resorufin-based EC50 assay, T. vaginalis; settings: Trichomonas vaginalis, read-out: Trichomonas Vaginalis, EC50
Method: The standard metronidazole-susceptible T. vaginalis strain G3was originally obtained from Jeremy Mottram (University of York, UK) and cultured in a modification of Diamond′s medium supplemented with 10% horse serum with a composition as described [40] at 37 °C under anaerobic conditions. Cultures were passaged daily.
Drugs were tested on T. vaginalis using a resorufin-based assay that we developed [40, 43]. The assay is based on the principle that live T. vaginalis trophozoites are, almost uniquely, able to reduce fluorescent, pink resorufin to non-fluorescent, colorless dihydro-resorufin. This conversion was measured as a dose-dependent increase in fluorescence (with dead cells unable to metabolize the fluorophore; λexc 544 nm, λem 599 nm), resulting in a sigmoid curve with variable slope that yielded EC50 values (Prism 6.0). Plates contained 11 doubling dilutions (1 row) and no-drug control for each compound starting at 100 µM under anaerobic conditions as described [40, 43]. Fluorescence was determined in a PheraStar plate reader (BMG Labtech).

M. tuberculosis H37Rv = test: microbe, parasite or virus in culture; type: cell-based; settings: Mycobacterium tuberculosis, control drugs at critical concentrations
[5] = test system: Staphylococcus aureus NRS384; test: microbe, parasite or virus in culture; type: cell-based; settings: NRS384, read-out: extrapolated IC50, growth of S. aureus NRS384
M. tuberculosis MS-115 = test: microbe, parasite or virus in culture; type: cell-based; settings: Mycobacterium tuberculosis, MS115, read-out: M. Tuberculosis MS-115 MIC
[6] = test system: L. mexicana WT promastigotes (strain MNY/BZ/62/M379); test: resazurin EC50 assay, L. mexicana promastigotes wild-type; settings: 72 h + 48 h resazurin, average and SEM, NE = no effect on cell viability at 100 µM
Method: as §1, §2

SMILES: O=c1[nH]cc(F)c(=O)[nH]1 [5-Fluorouracil, reference compound]
- EC50 (Tbb-5FURes): 2500 ± 76 µM
- fold difference in EC50, 5FURes versus wild-type (Tbb-5FURes; resistance to 5FU, reduction in trypanocidal activity for test compounds): 28.7 fold
- EC50 (T. brucei B48): 101 ± 7 µM
- EC50 (T. brucei 2T1 PYR6-5 −/−): 2.33 ± 0.35 µM
- fold difference in EC50, PYR6-5 −/− versus wild-type (T. brucei 2T1 PYR6-5 −/−; sensitization for 5FU, reduction in trypanocidal activity for test compounds): 37.4 fold
- EC50 [1]: 3520 ± 440 µM
- fold resistance, Lmex5FURes versus wild-type [2]: > 400 fold
- EC50 [3]: 87 ± 6.4 µM

SMILES: O=c1c(C#Cc2ccccc2)cn([C@H]2C=C[C@@H](O)C2)c(=O)n1[C@H]1C=C[C@@H](O)C1 [Compound 6]
- EC50 (Tbb-5FURes): > 100 µM
- EC50 (T. brucei B48): > 100 µM
- MIC [4]: 500 µM and 188 µg/mL
- EC50 (T. brucei 2T1 PYR6-5 −/−): > 100 µM
- EC50 [1]: > 100 µM
- U-937 Cells TC50 (U-937 cells): 166.2 µM
- EC50 [3]: > 100 µM
- EC50 (T. vaginalis strain G3): 70.2 ± 0.06 µM

SMILES: CCCC#Cc1cn([C@H]2C=C[C@@H](O)C2)c(=O)n([C@H]2C=C[C@@H](O)C2)c1=O [Compound 5, 1-[4′-Hydroxy-2′-cyclopenten-1′-yl]-3-(4′′-hydroxy-2′′-cyclopent-en-1′′-yl)-5-pentynyluracil]
- EC50 (Tbb-5FURes): > 100 µM
- EC50 (T. brucei B48): > 100 µM
- MIC [4]: > 1000 µM and > 342 µg/mL
- EC50 (T. brucei 2T1 PYR6-5 −/−): > 100 µM
- EC50 [1]: > 100 µM
- U-937 Cells TC50 (U-937 cells): 88.5 µM
- EC50 [3]: > 100 µM
- EC50 (T. vaginalis strain G3): 73.5 ± 0.08 µM

SMILES: CCCCCCC#Cc1cn([C@H]2C=C[C@@H](O)C2)c(=O)n([C@H]2C=C[C@@H](O)C2)c1=O [Compound 4, 1-[4′-Hydroxy-2′-cyclopenten-1′-yl]-3-(4′′-hydroxy-2′′-cyclopent-en-1′′-yl)-5-octynyluracil]
- EC50 (Tbb-5FURes): 24.9 ± 0.5 µM
- EC50 (T. brucei B48): 17.7 ± 1 µM
- MIC [4]: 31 µM and 11.9 µg/mL
- EC50 (T. brucei 2T1 PYR6-5 −/−): 17.5 ± 1.2 µM
- MIC (M. tuberculosis H37Rv): > 50 µg/mL
- EC50 [1]: 47.3 ± 0.4 µM
- U-937 Cells TC50 (U-937 cells): 73.8 µM
- EC50 [3]: ~13 µM
- EC50 (T. vaginalis strain G3): 54.1 ± 0.002 µM

SMILES: O=C(NCC#Cc1cn([C@H]2C=C[C@@H](O)C2)c(=O)n([C@H]2C=C[C@@H](O)C2)c1=O)C(F)(F)F [Compound 10, 1-[4′-Hydroxy-2′-cyclopenten-1′-yl]-3-(4′′-hydroxy-2′′-cyclopent-en-1′′-yl)-5-(trifluoroacetamidepropynyl)uracil]
- EC50 (Tbb-5FURes): > 100 µM
- EC50 (T. brucei B48): > 100 µM
- MIC [4]: > 1000 µM and > 425 µg/mL
- EC50 (T. brucei 2T1 PYR6-5 −/−): > 100 µM
- EC50 [1]: > 100 µM
- U-937 Cells TC50 (U-937 cells): 78.0 µM
- IC50 [5]: ~100 µM
- T. Brucei, EC50, S427-WT [3]: little or no activity at the highest concentration tested
- EC50 [3]: > 100 µM
- EC50 (T. vaginalis strain G3): 69.2 ± 0.05 µM

SMILES: NNC(=O)c1ccncc1 [Isoniazid, reference compound]
- MIC (M. tuberculosis H37Rv): 0.1 µg/mL (≈ 0.729 µM)
- MIC (M. tuberculosis MS-115): > 100 µg/mL

SMILES: CCCCCCCCC#Cc1cn([C@H]2C=C[C@@H](O)C2)c(=O)n([C@H]2C=C[C@@H](O)C2)c1=O [Compound 3, 1-[4′-Hydroxy-2′-cyclopenten-1′-yl]-3-(4′′-hydroxy-2′′-cyclopent-en-1′′-yl)-5-decynyluracil]
- EC50 (Tbb-5FURes): 19.9 ± 0.7 µM
- EC50 (T. brucei B48): 14.7 ± 0.2 µM
- MIC [4]: 31 µM and 12.8 µg/mL
- EC50 (T. brucei 2T1 PYR6-5 −/−): 17.1 ± 1.2 µM
- MIC (M. tuberculosis H37Rv): 50 µg/mL (≈ 121 µM)
- EC50 [1]: 25.8 ± 0.4 µM
- MIC (M. tuberculosis MS-115): 50 µg/mL (≈ 121 µM)
- U-937 Cells TC50 (U-937 cells): 2.2 µM
- EC50 [3]: ~13 µM
- EC50 (T. vaginalis strain G3): 32 ± 0.001 µM

SMILES: CO[C@H]1/C=C/O[C@@]2(C)Oc3c(C)c(O)c4c(O)c(c(/C=N/N5CCN(C)CC5)c(O)c4c3C2=O)NC(=O)/C(C)=C\C=C\[C@H](C)[C@H](O)[C@@H](C)[C@@H](O)[C@@H](C)[C@H](OC(C)=O)[C@@H]1C [Rifampicin, reference compound]
- MIC [4]: 0.19 µM and 0.16 µg/mL
- MIC (M. tuberculosis H37Rv): 1 µg/mL (≈ 1.22 µM)
- MIC (M. tuberculosis MS-115): > 50 µg/mL

SMILES: O=c1c(C#CCO)cn([C@H]2C=C[C@@H](O)C2)c(=O)n1[C@H]1C=C[C@@H](O)C1 [Compound 9, 1-[4′-Hydroxy-2′-cyclopenten-1′-yl]-3-(4′′-hydroxy-2′′-cyclopent-en-1′′-yl)-5-(hydroxypropynyl)uracil]
- L. Mexicana WT, EC50 [6]: did not show any antileishmanial activity at all
- EC50 (Tbb-5FURes): 74.9 ± 3.5 µM
- EC50 (T. brucei B48): 76.8 ± 4.4 µM
- MIC [4]: 1000 µM and 330 µg/mL
- EC50 (T. brucei 2T1 PYR6-5 −/−): 59.9 ± 1 µM
- EC50 [1]: > 100 µM
- U-937 Cells TC50 (U-937 cells): >100 µM
- EC50 [3]: 66.8 ± 6.6 µM
- EC50 (T. vaginalis strain G3): 84.8 ± 0.004 µM
